Test results taken from publication PMC6369001 (European journal of medicinal chemistry, 2019).
Where a name gives a salt, the structure may show the parent alone.

Columns and labels:
[1] = biological target: norepinephrine transporters (Rattus norvegicus, UniProt Q63380); experiment: Norepinephrine transporter binding
[2] = test system: cocaine-induced convulsions; experiment: In vivo cocaine-induced convulsion studies; conditions: mice, 10 mg/kg i.p. pretreatment; P<0.005 vs vehicle, Fisher's exact test
σ2R = biological target: T1, σ2R (Rattus norvegicus, UniProt Q5U3Y7); experiment: σ2R radioligand competition binding; conditions: selectivity ratio σ1R over σ2R
T1 sequence (Q5U3Y7 1-176): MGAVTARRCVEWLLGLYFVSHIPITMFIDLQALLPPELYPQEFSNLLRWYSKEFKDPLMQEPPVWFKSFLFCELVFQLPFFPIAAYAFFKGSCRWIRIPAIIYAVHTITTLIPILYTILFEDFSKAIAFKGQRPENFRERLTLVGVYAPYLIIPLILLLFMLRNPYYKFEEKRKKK

effects of cocaine = conditions: cited from earlier work; for Effects against cocaine in behavioral models: rodents, ref 32 (compound 1), ref 34 (compound 2)
[3] = test system: effects of methamphetamine; conditions: mice; ref 33 (compound 1), ref 35 (compound 2, pretreatment); cited from earlier work
[4] = biological target: Serotonin (5-HT2) receptors (Rattus norvegicus, UniProt P14842); experiment: Serotonin; format: binding; conditions: ratio of Ki 5-HT2 to Ki σ2R
serotonin transporters = serotonin transporters (Rattus norvegicus, UniProt P31652); experiment: Serotonin transporter binding; conditions: ratio of Ki serotonin transporter to Ki σ2R
serotonin transporters, sequence (P31652 whole entry): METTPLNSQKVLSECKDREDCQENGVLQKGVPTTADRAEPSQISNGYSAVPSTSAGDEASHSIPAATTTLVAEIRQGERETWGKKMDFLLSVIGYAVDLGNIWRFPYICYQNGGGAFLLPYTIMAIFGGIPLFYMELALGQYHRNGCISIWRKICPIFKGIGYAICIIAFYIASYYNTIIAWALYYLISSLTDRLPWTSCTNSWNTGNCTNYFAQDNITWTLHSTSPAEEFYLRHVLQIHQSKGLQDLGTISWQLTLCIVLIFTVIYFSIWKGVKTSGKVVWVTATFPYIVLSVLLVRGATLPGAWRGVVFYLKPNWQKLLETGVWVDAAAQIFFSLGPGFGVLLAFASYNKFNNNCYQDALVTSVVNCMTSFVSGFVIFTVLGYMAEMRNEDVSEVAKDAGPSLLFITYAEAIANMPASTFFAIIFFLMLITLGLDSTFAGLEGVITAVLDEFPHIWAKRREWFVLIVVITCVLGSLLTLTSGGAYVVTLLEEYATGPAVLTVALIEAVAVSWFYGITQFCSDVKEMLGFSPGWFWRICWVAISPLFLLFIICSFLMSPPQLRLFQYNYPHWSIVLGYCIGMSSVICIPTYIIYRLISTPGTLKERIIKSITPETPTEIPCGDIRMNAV

norepinephrine transporters, sequence (Q63380 1-617): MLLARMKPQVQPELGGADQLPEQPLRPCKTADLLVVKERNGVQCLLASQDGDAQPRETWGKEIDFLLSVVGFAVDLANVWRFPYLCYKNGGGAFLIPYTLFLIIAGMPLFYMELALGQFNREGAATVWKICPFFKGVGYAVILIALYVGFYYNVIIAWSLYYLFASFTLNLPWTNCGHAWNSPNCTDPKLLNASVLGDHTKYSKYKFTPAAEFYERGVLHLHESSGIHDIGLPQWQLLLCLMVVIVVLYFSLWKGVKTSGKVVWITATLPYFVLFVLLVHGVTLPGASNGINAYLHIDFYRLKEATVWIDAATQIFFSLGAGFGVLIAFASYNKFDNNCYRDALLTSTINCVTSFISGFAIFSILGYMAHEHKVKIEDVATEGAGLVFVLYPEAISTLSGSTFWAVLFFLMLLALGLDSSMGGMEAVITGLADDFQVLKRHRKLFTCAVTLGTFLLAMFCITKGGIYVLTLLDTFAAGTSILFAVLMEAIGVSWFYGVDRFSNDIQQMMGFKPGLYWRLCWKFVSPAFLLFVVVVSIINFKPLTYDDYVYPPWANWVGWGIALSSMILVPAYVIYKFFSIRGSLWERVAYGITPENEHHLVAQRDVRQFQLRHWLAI
Serotonin (5-HT2) receptors, sequence (P14842 whole entry): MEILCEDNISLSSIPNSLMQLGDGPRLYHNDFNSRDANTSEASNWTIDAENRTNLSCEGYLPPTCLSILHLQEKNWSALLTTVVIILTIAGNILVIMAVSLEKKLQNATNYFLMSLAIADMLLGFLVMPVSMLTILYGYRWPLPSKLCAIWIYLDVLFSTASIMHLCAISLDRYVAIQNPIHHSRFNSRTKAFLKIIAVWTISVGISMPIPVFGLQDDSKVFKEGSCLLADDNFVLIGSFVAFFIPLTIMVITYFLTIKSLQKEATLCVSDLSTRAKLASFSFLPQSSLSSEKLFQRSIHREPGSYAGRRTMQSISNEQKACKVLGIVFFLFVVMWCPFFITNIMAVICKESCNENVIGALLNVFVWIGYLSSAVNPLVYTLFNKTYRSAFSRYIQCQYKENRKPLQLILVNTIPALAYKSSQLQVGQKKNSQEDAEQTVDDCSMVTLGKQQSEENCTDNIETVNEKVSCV

SMILES	Ki [1] [µM]	Effects against cocaine in behavioral models (effects of cocaine)	Effects against methamphetamine [3]	also measured
CCCn1c(=O)n(CCCCN2CCN(c3ccc(F)cc3)CC2)c2ccccc21 [Compound 14]	> 10	–	–	Protective effect against cocaine-induced convulsions, statistical significance [2]: statistically significant; Ki σ1/ Ki σ2 (σ2R): > 1000
CC(=O)c1ccc2c(c1)oc(=O)n2CCCCN1CCN(c2ccc(F)cc2)CC1 [Compound 2, 6-acetyl-3-{4-[4-(4-fluorophenyl)piperazin-1-yl]butyl}-2(3H)-benzoxazolone]	–	reduced the toxic and stimulant effects of cocaine	afforded protection against methamphetamine-induced hyperthermia, and striatal dopaminergic and serotonergic neurotoxicity	Sedation and incoordination (effects of cocaine; acute treatment): caused sedation and incoordination
S=c1sc2ccccc2n1CCCCN1CCN(C2CCCCC2)CC1 [Compound 1, 3-[4-(4-cyclohexylpiperazin-1-yl)butyl]-2(3H)-benzothiazolethione]	–	produced both acute and subchronic effects against cocaine	mitigate the effects of methamphetamine	–
CCCCCn1c(=O)n(CCCCN2CCN(c3ccc(F)cc3)CC2)c2ccccc21 [Compound 15, 1-{4-[4-(4-fluorophenyl)piperazin-1-yl]butyl}-3-pentyl-1,3-dihydrobenzimidazol-2-one dihydrochloride]	> 10	–	–	5-HT2/σ2R preference for σ2Rs [4]: 58 fold; 5-HTT/σ2R selectivity for σ2Rs (serotonin transporters): 104 fold
